# Results reported in ChEMBL document CHEMBL5108004, “An auristatin-based peptide-drug conjugate targeting Kita-Kyushu lung cancer antigen 1 for precision chemoradiotherapy in gastric cancer” (Eur J Med Chem, 2022).
# Activity calls are given as the source filed them. No cut-off for these calls is given here. Where a SMILES comes first, the peptide text is derived from it. [ ]: non-standard residue; d: D form. The star is where a group is joined. Dolaproine = CO[C@@H]([C@@H]1CCCN1)[C@@H](C)C(=O)O; Dil = CC[C@H](C)[C@H](NC)[C@@H](CC(=O)O)OC; X1 = C[C@@H](N*)[C@@H](O)c1ccccc1; NMeV = CN[C@H](C(=O)O)C(C)C
# Assays:
# NUGC-4 [1] = assay: Induction of mitotic arrest in KK-LC-1-positive human NUGC-4 cells xenografted in nude mouse assessed as number of pHH3-positive nuclei in tumor at 4 nmol, iv administered as single dose and measured after 24 hrs by pHH3 immunohistochemical staining method relative to control; assay type: functional
# NUGC-4 [2] = assay: Cytotoxicity against KK-LC-1-positive human NUGC-4 cells incubated for 72 hrs by CCK-8 assay; assay type: functional, cell-based; settings: NUGC-4, 72 h
# MKN-45 [3] = assay: Cytotoxicity against KK-LC-1-positive human MKN-45 cells incubated for 72 hrs by CCK-8 assay; assay type: functional, cell-based; settings: MKN-45, 72 h
# MKN-45 [4] = assay: Antitumor activity against KK-LC-1-positive human MKN-45 cells xenografted in male BALB/c nude mouse assessed as reduction in tumor growth; assay type: functional
# MKN-45 [5] = assay: Antitumor activity against KK-LC-1-positive human MKN-45 cells xenografted in male BALB/c nude mouse assessed as tumor volume; assay type: functional
# HGC-27 = assay: Cytotoxicity against KK-LC-1-negative human HGC-27 cells incubated for 72 hrs by CCK-8 assay; assay type: functional, cell-based; settings: HGC-27, 72 h
smiles,measurement,setting,value
CC[C@H](C)[C@@H]([C@@H](CC(=O)N1CCC[C@H]1[C@H](OC)[C@@H](C)C(=O)N[C@H](C)[C@@H](O)c1ccccc1)OC)N(C)C(=O)[C@@H](NC(=O)[C@@H](NC)C(C)C)C(C)C (H-[NMeV]V[Dil][Dolaproine]-X1),Activity,NUGC-4 [1],28.75
same,IC50,NUGC-4 [2],11 nM
same,IC50,MKN-45 [3],10.7 nM
same,Activity,MKN-45 [4],Active
same,Activity,MKN-45 [5],602.1 mm3
same,IC50,HGC-27,7.18 nM
